As a reminder, the EC50 is the midpoint of the concentration-response curve. A lower EC50 goes with greater potency.

Bounds are passed on as bounds.

The text below walks through data of US20200131132A1, “FARNESOID X RECEPTOR AGONISTS AND USES THEREOF” (Metacrine, Inc., priority 2017, published 2020).

The target of this experiment is T1, hFXR (Homo sapiens, UniProt Q96RI1).
T1 construct: expressed in transfected cells; host or cells: CV-1 cells
T1 sequence (Q96RI1 1-486): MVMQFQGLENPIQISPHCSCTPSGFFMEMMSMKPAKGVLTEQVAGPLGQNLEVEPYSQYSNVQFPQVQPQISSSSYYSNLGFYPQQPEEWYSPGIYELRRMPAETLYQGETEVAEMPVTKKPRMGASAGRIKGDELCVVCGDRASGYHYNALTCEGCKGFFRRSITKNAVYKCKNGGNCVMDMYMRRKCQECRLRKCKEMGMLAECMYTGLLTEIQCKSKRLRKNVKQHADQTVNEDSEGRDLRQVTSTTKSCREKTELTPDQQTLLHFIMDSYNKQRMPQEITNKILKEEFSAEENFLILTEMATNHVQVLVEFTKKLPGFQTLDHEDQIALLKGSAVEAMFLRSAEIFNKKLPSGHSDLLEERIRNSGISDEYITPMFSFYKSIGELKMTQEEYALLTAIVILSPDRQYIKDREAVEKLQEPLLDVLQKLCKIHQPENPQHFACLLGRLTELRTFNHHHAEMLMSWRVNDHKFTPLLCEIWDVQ
T1 sequence (P19793 1-462 partner): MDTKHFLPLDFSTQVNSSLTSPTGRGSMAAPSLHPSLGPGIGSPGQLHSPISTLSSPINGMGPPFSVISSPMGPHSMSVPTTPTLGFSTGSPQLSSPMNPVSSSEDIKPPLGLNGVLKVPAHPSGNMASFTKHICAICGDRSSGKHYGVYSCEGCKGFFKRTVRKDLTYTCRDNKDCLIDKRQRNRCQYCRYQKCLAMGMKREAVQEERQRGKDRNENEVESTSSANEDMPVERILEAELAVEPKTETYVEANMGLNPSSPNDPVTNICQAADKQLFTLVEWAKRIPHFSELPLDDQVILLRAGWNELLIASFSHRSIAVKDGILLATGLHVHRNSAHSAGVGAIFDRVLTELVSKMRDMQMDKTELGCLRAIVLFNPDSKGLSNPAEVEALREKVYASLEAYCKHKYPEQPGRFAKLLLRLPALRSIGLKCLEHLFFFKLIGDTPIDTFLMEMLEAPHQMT
In words: In Vitro FXR Assay (TK). Format: cell-based. The note with it: CV-1 cells transfected with hFXR, hRXR, TK-ECRE-luc and pCMX-YFP; compounds incubated 18 hrs; luminescence. The gist of the method: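 Reporter transactivation by hFXR was measured in CV-1 cells carrying hRXR and a TK-ECRE-luc construct, with compound treatment for 18 h before lysis and luminescence detection.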

`COc1ccc(-c2ccc(CN(C(=O)CC(C)(C)C)c3nccc4ccncc34)cc2)cc1C` [Compound 5.04, N-((4′-Methoxy-3′-methyl-[1,1′-biphenyl]-4-yl)methyl)-3,3-dimethyl-N-(2,7-naphthyridin-1-yl)butanamide] registered an EC50 of 1000 to 10000 nM.
As for `COc1ccc(-c2ccc(CN(C(=O)CC(C)(C)C)c3nccc4cc(C)ccc34)cc2)cc1C` [Compound 12, N-((4′-Methoxy-3′-methyl-[1,1′-biphenyl]-4-yl)methyl)-3,3-dimethyl-N-(6-methylisoquinolin-1-yl)butanamide], the EC50 is no more than 1000 nM.
In turn, `COc1ccc(-c2ccc(CN(C(=O)CC(C)(C)C)c3nccc4cc(OCCO)ccc34)cc2)cc1C` [Compound 8.11, N-(6-(2-Hydroxyethoxy)isoquinolin-1-yl)-N-((4′-methoxy-3′-methyl-[1,1′-biphenyl]-4-yl)methyl)-3,3-dimethylbutanamide] came in with an EC50 of no more than 1000 nM.
In turn, `COC(=O)COCc1ccc2c(N(Cc3ccc(-c4ccc(OC)c(C)c4)cc3)C(=O)CC(C)(C)C)nccc2c1` [Compound 9.02, Methyl 2-((1-(N-((4′-methoxy-3′-methyl-[1,1′-biphenyl]-4-yl)methyl)-3,3-dimethylbutanamido)isoquinolin-6-yl)methoxy)acetate] returned an EC50 of no more than 1000 nM.
As to `COc1ccc(-c2ccc(CN(C(=O)CC(C)(C)C)c3nccc4cc(OCC(=O)N(C)C)ccc34)cc2)cc1C` [Compound 8.02, N-(6-(2-(Dimethylamino)-2-oxoethoxy)isoquinolin-1-yl)-N-((4′-methoxy-3′-methyl-[1,1′-biphenyl]-4-yl)methyl)-3,3-dimethylbutanamide], the EC50 is no more than 1000 nM.
For the molecule `COc1ccc2ccnc(N(Cc3ccc(-c4ccc(OC)c(C)c4)cc3)C(=O)CC(C)(C)C)c2c1` [Compound 11.03, N-((4′-Methoxy-3′-methyl-[1,1′-biphenyl]-4-yl)methyl)-N-(7-methoxyisoquinolin-1-yl)-3,3-dimethylbutanamide], the EC50 is no more than 1000 nM.
